Common to all, as to assay type: cell-based, HEK293
Assay [1] concerns the target Sodium-dependent noradrenaline transporter (Homo sapiens, UniProt P23975). The assay is described as follows: Inhibition of norepinephrine uptake at human NET expressed in HEK cells.
Assay [2] addresses Sodium-dependent serotonin transporter (Homo sapiens, UniProt P31645).
Assay [3] deals with Sodium-dependent dopamine transporter (Homo sapiens, UniProt Q01959). The assay is described as follows: Inhibition of dopamine uptake at human DAT expressed in HEK cells.

23 compounds from ChEMBL document CHEMBL1156582, “Synthesis and structure-activity relationships of selective norepinephrine reuptake inhibitors (sNRI) with a heterocyclic ring constraint” (Bioorg Med Chem Lett, 2008) can be followed below.

Sequence of Sodium-dependent serotonin transporter (P31645 whole entry): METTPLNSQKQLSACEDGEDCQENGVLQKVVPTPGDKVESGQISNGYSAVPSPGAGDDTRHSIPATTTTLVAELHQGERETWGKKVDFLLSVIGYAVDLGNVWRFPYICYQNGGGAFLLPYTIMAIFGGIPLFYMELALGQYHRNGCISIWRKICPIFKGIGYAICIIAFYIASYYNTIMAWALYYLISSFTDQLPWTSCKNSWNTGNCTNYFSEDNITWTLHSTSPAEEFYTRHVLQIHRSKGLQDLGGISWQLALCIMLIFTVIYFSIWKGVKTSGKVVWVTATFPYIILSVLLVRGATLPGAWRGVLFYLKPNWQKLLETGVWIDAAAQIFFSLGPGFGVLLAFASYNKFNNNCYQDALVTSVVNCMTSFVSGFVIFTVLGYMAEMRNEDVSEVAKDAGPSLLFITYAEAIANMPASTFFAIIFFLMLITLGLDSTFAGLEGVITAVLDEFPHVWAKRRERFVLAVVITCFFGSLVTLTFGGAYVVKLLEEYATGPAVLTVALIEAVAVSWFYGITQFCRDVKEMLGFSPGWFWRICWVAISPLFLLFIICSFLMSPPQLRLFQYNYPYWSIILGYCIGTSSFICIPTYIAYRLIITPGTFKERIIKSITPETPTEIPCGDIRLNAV
Sequence of Sodium-dependent dopamine transporter (Q01959 whole entry): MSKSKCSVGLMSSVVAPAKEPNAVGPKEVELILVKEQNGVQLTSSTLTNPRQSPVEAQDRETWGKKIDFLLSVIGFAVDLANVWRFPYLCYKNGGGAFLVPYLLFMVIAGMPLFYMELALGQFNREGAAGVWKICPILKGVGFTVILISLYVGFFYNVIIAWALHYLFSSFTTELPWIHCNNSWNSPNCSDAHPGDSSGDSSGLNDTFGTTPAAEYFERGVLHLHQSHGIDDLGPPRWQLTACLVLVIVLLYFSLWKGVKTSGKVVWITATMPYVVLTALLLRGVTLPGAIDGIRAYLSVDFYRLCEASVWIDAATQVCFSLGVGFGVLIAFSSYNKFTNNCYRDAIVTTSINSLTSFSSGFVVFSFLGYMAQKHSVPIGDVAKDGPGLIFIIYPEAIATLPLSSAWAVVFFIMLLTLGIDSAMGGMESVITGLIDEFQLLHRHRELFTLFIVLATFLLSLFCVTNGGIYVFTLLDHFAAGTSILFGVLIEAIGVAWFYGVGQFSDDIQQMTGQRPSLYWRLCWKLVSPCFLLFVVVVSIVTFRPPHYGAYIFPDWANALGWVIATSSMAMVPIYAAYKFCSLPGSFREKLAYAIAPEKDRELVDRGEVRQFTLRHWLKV
Sequence of Sodium-dependent noradrenaline transporter (P23975 whole entry): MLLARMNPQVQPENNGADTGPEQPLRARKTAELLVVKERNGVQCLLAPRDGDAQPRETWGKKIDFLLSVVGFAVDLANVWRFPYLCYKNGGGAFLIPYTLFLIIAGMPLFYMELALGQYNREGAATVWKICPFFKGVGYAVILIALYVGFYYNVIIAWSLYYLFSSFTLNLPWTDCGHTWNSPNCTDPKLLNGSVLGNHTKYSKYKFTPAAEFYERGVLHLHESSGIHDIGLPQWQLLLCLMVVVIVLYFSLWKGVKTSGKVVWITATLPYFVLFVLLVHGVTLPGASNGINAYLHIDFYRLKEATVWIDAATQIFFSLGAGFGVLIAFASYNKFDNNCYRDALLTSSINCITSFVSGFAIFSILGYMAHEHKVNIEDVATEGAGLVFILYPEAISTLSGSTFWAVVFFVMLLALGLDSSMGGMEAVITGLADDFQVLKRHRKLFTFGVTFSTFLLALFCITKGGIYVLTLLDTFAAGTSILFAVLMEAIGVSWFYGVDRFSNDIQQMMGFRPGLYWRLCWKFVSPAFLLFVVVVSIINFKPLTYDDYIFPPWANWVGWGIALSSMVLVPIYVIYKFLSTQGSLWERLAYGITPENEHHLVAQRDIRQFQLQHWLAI

As for `CNC[C@@H]1CSc2ccccc2[C@@H]1Oc1ccccc1Cl`, the values for the concentration for half-maximal inhibition (IC50) in assay [1], in assay [2] and in assay [3] were 145 nM, 3600 nM and > 10000 nM, respectively.

For `Cc1ccccc1O[C@H]1c2ccccc2C[C@H]1CN(C)C`, the IC50 (as a rule, the concentration that gives 50% inhibition) was 5000 nM in assay [1], 6500 nM in assay [2] and > 10000 nM in assay [3].

On to `CNC[C@@H]1OCc2ccccc2[C@@H]1Oc1cccc(Cl)c1C`, for which the IC50 in assay [1] was 9 nM; in assay [2], 100 nM; in assay [3] it was 1400 nM.

Regarding `CCc1cccc(F)c1O[C@H]1c2ccccc2CO[C@H]1CNC`, the IC50 in assay [1] was 8 nM; in assay [2], 1400 nM; in assay [3], > 10000 nM.

With `CNC[C@@H]1Cc2ccccc2[C@@H]1Oc1ccccc1C`, the values for the IC50 in assay [1], in assay [2] and in assay [3] were 10 nM, 1600 nM and 5300 nM, respectively.

As to `CNC[C@@H]1Cc2ccccc2[C@@H]1Oc1ccc(C(F)(F)F)cc1`, the IC50 was 880 nM in assay [1], 190 nM in assay [2] and > 10000 nM in assay [3].

`CNC[C@@H]1OCc2ccccc2[C@@H]1Oc1ccc(F)cc1C`: the IC50 in assay [1] was 13 nM; in assay [2] it was 150 nM; in assay [3] it was > 10000 nM.

Turning to `CNC[C@@H]1SCc2ccccc2[C@@H]1Oc1ccccc1Cl`, the IC50 was 140 nM in assay [1], 2700 nM in assay [2] and > 10000 nM in assay [3].

Turning to `CN(C)C[C@@H]1Cc2ccccc2[C@@H]1Oc1ccc(C(F)(F)F)cc1`, the IC50 is 4500 nM in assay [1], 230 nM in assay [2] and > 10000 nM in assay [3].

Regarding `CNC[C@@H]1OCc2ccccc2[C@@H]1Oc1ccccc1F`, the IC50 in assay [1] is 75 nM; in assay [2], 3100 nM; in assay [3] it was > 10000 nM.

Consider `CNC[C@H]1OCc2ccccc2[C@@H]1Oc1ccccc1OC`, for which the IC50 in assay [1] is 480 nM; in assay [2], > 10000 nM; in assay [3], > 10000 nM.

`CCc1ccccc1O[C@H]1c2ccccc2CO[C@@H]1CNC`: the IC50 is 36 nM in assay [1], 3000 nM in assay [2] and > 10000 nM in assay [3].

In the case of `CNC[C@@H]1OCc2ccccc2[C@@H]1Oc1cc(F)ccc1C`, the figures for the IC50 in assay [1], in assay [2] and in assay [3] were 11 nM, 4000 nM and > 10000 nM, respectively.

On to `CNC[C@H]1CS(=O)(=O)c2ccccc2[C@@H]1Oc1ccccc1C`, for which the IC50 is 8000 nM in assay [1], 10000 nM in assay [2] and > 10000 nM in assay [3].

In the case of `CNC[C@H]1Cc2ccccc2[C@@H]1Oc1cccc2ccccc12`, the IC50 in assay [1] worked out at 400 nM; in assay [2], 90 nM; in assay [3] it was 4000 nM.

Regarding `CNC[C@H]1Cc2ccccc2[C@@H]1Oc1ccccc1C`, the figures for the IC50 in assay [1], in assay [2] and in assay [3] were 35 nM, 1500 nM and > 10000 nM, respectively.

With `CNC[C@@H]1Cc2ccccc2[C@@H]1Oc1cccc2ccccc12`, the IC50 in assay [1] stood at 30 nM; in assay [2], 140 nM; in assay [3], 5700 nM.

On to `CCc1ccccc1O[C@H]1c2ccccc2CO[C@H]1CNC`, for which the IC50 in assay [1] is 15 nM; in assay [2], 4500 nM; in assay [3], > 10000 nM.

In the case of `CNC[C@H]1CSc2ccccc2[C@@H]1Oc1ccccc1C`, the IC50 amounted to 430 nM in assay [1], 3100 nM in assay [2] and 7500 nM in assay [3].

For the compound `CNC[C@@H]1OCc2ccccc2[C@@H]1Oc1ccccc1SC`, the figures for the 50% inhibitory concentration (IC50) in assay [1], in assay [2] and in assay [3] were 14 nM, 6000 nM and > 10000 nM, respectively.

Turning to `Cc1ccccc1O[C@H]1c2ccccc2OC[C@H]1CN(C)C`, the IC50 in assay [1] was 700 nM; in assay [2], 1100 nM; in assay [3] it was > 10000 nM.

Turning to `CNC[C@H]1OCc2ccccc2[C@@H]1Oc1ccccc1SC`, the half-inhibitory concentration (IC50) in assay [1] was found to be 45 nM; in assay [2], 640 nM; in assay [3], 4000 nM.

Take `CCOc1ccccc1O[C@H]1c2ccccc2CO[C@@H]1CNC`: the results for the IC50 in assay [1], in assay [2] and in assay [3] were 240 nM, > 10000 nM and > 10000 nM, respectively.
